Among the data in patent US9115143B2, “Substituted indole derivatives as gamma secretase modulators” (Janssen Pharmaceuticals, Inc., priority 2011, dated 2015) are IC50 values, retold here.

In one assay the test system is Aβ42. The experiment in a line: Screening for γ-secretase-modulating activity: Aβ42 in supernatant of SKNBE2 cells carrying hAPP 695 wild type (Alphalisa). It is filed as cell-based, human. The conditions noted are these: overnight incubation, Alphalisa on supernatant. As for the experimental part: (§1) Pharmacology A) Screening of the Compounds of the Invention for γ-Secretase-Modulating Activity
(§2) Screening was carried out using SKNBE2 human neuroblastoma cells carrying the hAPP 695—wild type, grown in Dulbecco's Modified Eagle's Medium/Nutrient mixture F-12 (DMEM/NUT-mix F-12) (HAM) provided by Invitrogen (cat no. 10371-029) containing 5% Serum/Fe supplemented with 1% non-essential amino acids, 1-glutamine 2 mM, Hepes 15 mM, penicillin 50 U/mL (units/mL) en streptomycin 50 μg/mL. Cells were grown to near confluency.
(§3) The screening was performed using a modification of the assay as described in Citron et al (1997) Nature Medicine 3: 67. Briefly, cells were plated in a 384-well plate at 10^4 cells/well in Ultraculture (Lonza, BE12-725F) supplemented with 1% glutamine (Invitrogen, 25030-024), 1% non-essential amino acid (NEAA), penicillin 50 U/mL en streptomycin 50 μg/mL in the presence of test compound at different test concentrations. The cell/compound mixture was incubated overnight at 37° C., 5% CO2. The next day the media were assayed by two sandwich immuno-assays, for Aβ42 and Aβtotal.
(§4) Aβtotal and Aβ42 concentrations were quantified in the cell supernatant using the Aphalisa technology (Perkin Elmer). Alphalisa is a sandwich assay using biotinylated antibody attached to streptavidin coated donorbeads and antibody conjugated to acceptor beads. In the presence of antigen, the beads come into close proximity. The excitation of the donor beads provokes the release of singlet oxygen molecules that trigger a cascade of energy transfer in the acceptor beads, resulting in light emission. To quantify the amount of Aβ42 in the cell supernatant, monoclonal antibody specific to the C-terminus of Aβ42 (JRF/cAβ42/26) was coupled to the receptor beads and biotinylated antibody specific to the N-terminus of Aβ (JRF/AβN/25) was used to react with the donor beads. To quantify the amount of Aβ total in the cell supernatant, monoclonal antibody specific to the N-terminus of Aβ (JRF/AβN/25) was coupled to the receptor beads and biotinylated antibody specific to the mid region of Aβ (biotinylated 4G8) was used to react with the donor beads.
(§5) To obtain the values reported in Table 3, the data are calculated as percentage of the maximum amount of amyloid Beta 42 measured in the absence of the test compound. The sigmoidal dose response curves were analyzed using nonlinear regression analysis with percentage of the control plotted against the log concentration of the compound. A 4-parameter equation was used to determine the IC50.

The test system of another assay is Aβtotal. Description: Screening for γ-secretase-modulating activity: Aβtotal in supernatant of SKNBE2 cells carrying hAPP 695 wild type (Alphalisa). It is filed as cell-based, human. The conditions noted are these: overnight incubation, Alphalisa on supernatant. As to the method: as §1, §2, §3, §4, §5
(Alpha assays give light when donor and acceptor beads are brought close together.)

Setting [1] is: SKNBE2 human neuroblastoma cells carrying hAPP 695 wild type.
The mark [2] stands for this setting: Homo sapiens, SKNBE2, SKNBE2 human neuroblastoma cells carrying hAPP 695 wild type.

Consider `Cc1cn(-c2ccc3[nH]c(-c4nc5n(n4)CCCC5c4ccc(F)cc4C)nc3c2)cn1` (centres unmarked) [Compound 179, 8-(4-fluoro-2-methylphenyl)-5,6,7,8-tetrahydro-2-[5-(4-methyl-1H-imidazol-1-yl)-1H-benzimidazol-2-yl]-[1,2,4]triazolo[1,5-a]pyridine], for which the IC50 (in general, the concentration at which inhibition is half-maximal) in the assay on Aβ42 (setting [1]) was 407 nM; in the assay on Aβtotal (setting [2]) it was > 10000 nM.

As to `COc1cc2[nH]c(-c3nc4n(n3)CCCC4c3ccccc3C(F)(F)F)cc2cc1C#N` (centres unmarked) [Compound 28, 6-methoxy-2-[5,6,7,8-tetrahydro-8-[2-(trifluoromethyl)phenyl][1,2,4]triazolo[1,5-a]pyridin-2-yl]-1H-indole-5-carbonitrile], the IC50 in the assay on Aβ42 (setting [2]) is 107 nM; in the assay with Aβtotal (setting [2]), > 10000 nM.

With `N#Cc1ccc2[nH]c(-c3nc4n(n3)CCOC4c3ccccc3C(F)(F)F)cc2c1` (centres unmarked) [Compound 35, 2-[5,6-dihydro-8-[2-(trifluoromethyl)phenyl]-8H-[1,2,4]triazolo[5,1-c][1,4]oxazin-2-yl]-1H-indole-5-carbonitrile], the IC50 in the assay on Aβ42 (setting [2]) is 363 nM; with Aβtotal (setting [2]) it was > 10000 nM.

Take `Cc1cc(F)ccc1C1OCCn2nc(-c3cc4c(OC(C)C)c(C#N)ccc4[nH]3)nc21` (centres unmarked) [Compound 166, 2-[8-(4-fluoro-2-methylphenyl)-5,6-dihydro-8H-[1,2,4]triazolo[5,1-c][1,4]oxazin-2-yl]-4-(1-methylethoxy)-1H-indole-5-carbonitrile]: the IC50 in the assay on Aβ42 (setting [2]) was 347 nM; in the assay with Aβtotal (setting [2]), > 10000 nM.

`Cc1ccccc1C1CCCn2nc(-c3cc4cc(C#N)ccc4[nH]3)nc21` (centres unmarked) [Compound 14, 2-[5,6,7,8-tetrahydro-8-(2-methylphenyl)[1,2,4]triazolo[1,5-a]pyridin-2-yl]-1H-indole-5-carbonitrile]: the IC50 with Aβ42 (setting [1]) is 2950 nM; in the assay on Aβtotal (setting [1]), > 10000 nM.

Consider `COc1c(C#N)ccc2[nH]c(-c3nc4n(n3)CCOC4c3cc(C(F)(F)F)ccc3F)cc12` (single isomer, unassigned) [Compound 160, 2-[8-[2-fluoro-5-(trifluoromethyl)phenyl]-5,6-dihydro-8H-[1,2,4]triazolo[5,1-c][1,4]oxazin-2-yl]-4-methoxy-1H-indole-5-carbonitrile], for which the IC50 in the assay with Aβ42 (setting [1]) was 5130 nM; with Aβtotal (setting [2]), > 10000 nM.

Turning to `COc1c(C#N)ccc2[nH]c(-c3cn4c(n3)C(c3ccccc3C(F)(F)F)OCC4)cc12` (single isomer, unassigned) [Compound 45, 2-[5,6-dihydro-8-[2-(trifluoromethyl)phenyl]-8H-imidazo[2,1-c][1,4]oxazin-2-yl]-4-methoxy-1H-indole-5-carbonitrile], the figures for the IC50 in the assay on Aβ42 (setting [1]) and in the assay with Aβtotal (setting [1]) were 372 nM and > 10000 nM, respectively.

With `COCc1ccccc1C1CCCn2nc(-c3cc4c(OC)c(C#N)ccc4[nH]3)nc21` (centres unmarked) [Compound 90, 4-methoxy-2-[5,6,7,8-tetrahydro-8-[2-(methoxymethyl)phenyl][1,2,4]triazolo[1,5-a]pyridin-2-yl]-1H-indole-5-carbonitrile], the IC50 was 40 nM with Aβ42 (setting [1]) and > 10000 nM in the assay with Aβtotal (setting [1]).

Take `Cc1cc(F)ccc1C1CCCn2cc(-c3cc4nc(-c5cnn(C)c5)ccc4[nH]3)nc21` (centres unmarked) [Compound 86, 2-[8-(4-fluoro-2-methylphenyl)-5,6,7,8-tetrahydroimidazo[1,2-a]pyridin-2-yl]-5-(1-methyl-1H-pyrazol-4-yl)-1H-pyrrolo[3,2-b]pyridine]: the IC50 was 112 nM in the assay with Aβ42 (setting [1]) and > 10000 nM in the assay with Aβtotal (setting [1]).

For `Cc1cc(F)ccc1C1CCCn2cc(-c3cc4nc(-c5cnn(C)c5)ccc4[nH]3)nc21` (centres unmarked) [Compound 85, 2-[8-(4-fluoro-2-methylphenyl)-5,6,7,8-tetrahydroimidazo[1,2-a]pyridin-2-yl]-5-(1-methyl-1H-pyrazol-4-yl)-1H-pyrrolo[3,2-b]pyridine], the IC50 in the assay on Aβ42 (setting [1]) is 9120 nM; in the assay with Aβtotal (setting [2]), > 10000 nM.
